What is called pIC50 is the IC50 on a negative log10 scale, so that one unit is a factor of ten.

pIC50: −log10 of the molar value. Where two headings read alike, the source gives them in different places.

Test [1] concerns Nitrosomonas europaea. The test can be described thus: Nitrification inhibition assay with Nitrosomonas europaea (nitrite level after 24 h). Format: cell-based. The conditions noted are these: Nitrosomonas europaea; for activity at 100 µM: 24 h, read-out: Nitrification (%) at tested concentration (0 = maximum activity). The procedure: (§1) The compounds of formula (I) and (II) and (III)/(IV) were tested for their nitrification inhibition effect in two screens, using assays with the nitrifying bacteria N. europaea and N. multiformis. In practice, ammonium and candidate nitrification inhibitors (at 100 μM) were added to a dense bacterial culture in multiwell culture plates and after 24 h of incubation, the nitrite level was measured. To normalize for differences between batches of cultures and multiwell culture plates, for each well a relative nitrification was calculated that was normalized towards both the negative and positive controls (see “Material and Methods” below for full details).
(§2) Nitrite (NO2−) was measured using the Griess reagent (Product number: G4410, Griess reagent (modified), Sigma-Aldrich). Equal volumes of the sample or a diluted sample and the Griess reagent were mixed a transparent flat bottom multi-well plate and incubated in the dark at room temperature for 10 minutes. Absorbance values at 540 nm were measured spectrophotometrically (EnVision, Perkin Elmer®) and used to calculate the [NO2−] by use of a standard curve.
To prepare a high-throughput nitrification inhibition assay using N. europaea, late-log phase cultures were subcultivated two days before the assay. Just before the assay, the cultures were 5 times overconcentrated with fresh growth medium after centrifugation (4000 rpm, 15 min, 5° C.) in 50 mL centrifuge tubes (Cat. No. 430829, CentriStar™ Conical Centrifuge Tubes, Corning®). Per batch, all the cultures were pooled in one sterile Schott bottle and subsequently dispensed into 384-well plates (Cat. No. 781086, CELL-STAR® plate, Greiner Bio-One; 50 μl/well) by use of a dispenser (Multidrop™ Combi Reagent Dispenser, Thermo Scientific™) that was first flushed with growth medium. Specifically for the high-throughput screen for new nitrification inhibitors, 0.5 μl of 99.99% DMSO (negative control—final concentration 1%) was added to the outer two columns on the left side of the plate and 0.5 μl of 10 mM DMP (3,4-dimethylpyrazole, positive control—final concentration 100 μM) was added to the outer two columns on the right side manually. Finally, 0.5 μl of candidate nitrification inhibitors (5 mM stock solutions in 99.99% DMSO—final concentration 50 μM) were added to the central wells using a pin tool on a Tecan robot (Freedom EVO®, Tecan). In between additions, the pins were washed in sequence with 99.5% DMSO, MilliQ water and 100% ethanol and air-dried. All plates were separately wrapped in Parafilm. Stacks of 4 plates were put on top of a 96-well plate filled with 100 μl MilliQ per well, covered with aluminum foil and shaken at 150 rpm at 28° C. 24 h later, NO2− production was assessed. For this, the samples were first 200 times diluted by pipetting 1.5 μl of samples into 300 μl of fresh growth medium in intermediate plates (Cat. No. 353077, Falcon® 96-well Clear Round Bottom Microplate, Corning®), to then mix 15 μl of the diluted samples with 15 μl Griess reagent in the wells of a transparent, flat bottom 384-well plate (Cat. No. X^7001, Low Profile Microplate, Molecular Devices) that was measured spectrophotometrically at 540 nm (EnVision, Perkin Elmer®).
(§3) To assess the efficacy of the compounds (in terms of nitrification inhibition) and to enable comparison between plates and batches of cultures, we calculated the relative nitrification. More in detail, all nitrite results were normalized towards both a negative control, containing no compound, and a positive control, containing the benchmark (100 μM DMP), using Equation 1. This normalization was done per multi-well plate and each plate contained 32 positive and 32 negative controls.
IC50 values, that is the concentration that inhibits 50% of the nitrification, were calculated after fitting a logistic curve to 8-point dose response data, using doses between 2 and 100 μM with 1.75 fold steps. […]

Test [2] relates to Nitrosospira multiformis. In words: Nitrification inhibition assay with Nitrosospira multiformis (nitrite level after 24 h). Format: cell-based. The settings on record: Nitrosospira multiformis; for activity at 100 µM: 24 h, read-out: Nitrification at tested concentration (0 = maximum activity). The procedure:
as §1, §2
Cultures were first 5 times overconcentrated in fresh 181-medium by centrifugation (4000 rpm, 15 min, 5° C.) in 50 mL centrifuge tubes (Cat. No. 430829, CentriStar™ Conical Centrifuge Tubes, Corning®). Per batch, all the cultures were pooled in one sterile Schott bottle and subsequently dispensed in 384-well plates (Cat. No. 781086, CELLSTAR® plate, Greiner BioOne; 50 μl/well) by use of a dispenser (Multidrop™ Combi Reagent Dispenser, Thermo Scientific™) that was first flushed with 181-medium. 0.5 μl of 99.99% DMSO (negative control—final concentration […] was added to the outer two columns on the left side of the plate and 0.5 μl of 10 mM DMP (3,4-dimethylpyrazole, positive control—final concentration 100 μM) was added to the outer two columns on the right side manually. Finally, 0.5 μl of candidate nitrification inhibitors (5 mM stock solutions in 99.99% DMSO—final concentration 50 μM) were added to the central wells using a pin tool on a Tecan robot (Freedom EVO®, Tecan). In between additions, the pins were washed in sequence with 99.5% DMSO, MilliQ water and 100% ethanol and air-dried. All plates were separately wrapped in Parafilm. Stacks of 4 plates were put on top of a 96-well plate filled with 100 μl MilliQ per well, covered with aluminum foil and shaken (±150 rpm) at 30° C. 24 h later, NO2− production was assessed. For this, the samples were first 100 times diluted by pipetting 3 μl of samples into 300 μl fresh growth medium in intermediate plates (Cat. No. 353077, Falcon® 96-well Clear Round Bottom Microplate, Corning®) to then mix 15 μl of the diluted samples with 15 μl Griess reagent in the wells of a transparent, flat bottom 384-well plate (Cat. No. X^7001, Low Profile Microplate, Molecular Devices) that was measured spectrophotometrically at 540 nm (EnVision, Perkin Elmer®).
as §3
IC50 values, that is the concentration that inhibits 50% of the nitrification, were calculated after fitting a logistic curve to 8-point dose response data, using doses between 2 and 100 μM with 1.75 fold steps. If a concentration of 2 μM already inhibited nitrification, the IC50 value could not be calculated. In that case, IC50 values represent the dose that gives inhibition closest to 50%.
The compounds of formula (I) and (II) were tested for their nitrification inhibition effect in two screens, using assays with the nitrifying bacteria N. europaea and N. multiformis. […]

Test [3] relates to Moorslede soil. In words: In soil nitrification inhibition assay, Moorslede soil. The settings on record: soil, 120 h; 50 μM; 5 days; read-out: % Nitrification inhibition in soil (5 days of incubation, Moorslede soil) at indicated concentration. The procedure:
Top layer (0 to 10 cm) soil samples were collected from different fields in Belgium (Merelbeke and Moorslede). Vegetation on the field trial was removed and samples were taken from different plots. All soil samples were mixed and sieved (mesh size 2.8 mm) to filter large debris and homogenize soil. The soil was stored at 5° C. in plastic containers covered with Saran foil to prevent changes in microbial community composition and to maintain the original soil water content.
Soil water content was determined by drying 20 g soil for 48 h in a 60° C. oven and measuring weight before and after drying. Based on the soil water content (±20%), compound solutions were prepared so that addition of 200 μl compound and 200 μl NH4Cl solution would result in a final compound concentration of 50 μM and a final NH4^+ concentration of 10 mM. Per treatment, 5 small pots were filled with 20 g soil. Next, the soil was treated first with the respective compound solution and then with the NH4Cl solution. Per tray, positive (50 μM DMP) and negative controls (DMSO) were included. Pots were incubated at 21° C. (6 a.m. to 10 p.m. light) for 7 days. Demineralized water was added to the soil every 2 to 3 days to a soil weight of 20 g. In the end, each sample of 20 g soil was dissolved in 100 ml 1M KCl and shaken for 1 hour, followed by filtration through Whatmann® paper. The filtrate was used to measure pH, NH4^+ and NO3− concentrations.
A set of examples was tested in the same conditions (Moorslede soil, 3 days of incubation) at a concentration of 50 μM.
Another set of examples was tested in different concentrations in Moorslede soil as well, and were sampled after 5 days.
The effect of 3H-1,3-thiazole-2-thione was tested in soil in accordance with the test described above in section 3.3.

Setting [4] is: 8-point dose response, 2 to 100 μM, read-out: IC50.
[5] abbreviates: tested concentration 100 μM, normalized to DMSO (100%) and 100 μM DMP (0%).

Turning to `NCCCSc1nccs1` [Example 37], the pIC50 in test [1] (setting [4]) is under 4.00; in test [2] (setting [4]), 4.36. Moreover, the activity at 100 µM in test [1] (setting [5]) was 58%; in test [2] (setting [5]), 7%.
On to `Cc1csc(SC2CCCCC2)n1` [Example 38], for which the pIC50 in test [1] (setting [4]) and in test [2] (setting [4]) was under 4.00 each time. Also, the activity at 100 µM in test [1] (setting [5]) came to 92%; in test [2] (setting [5]) it was 53%.
In the case of `CSc1ncco1` [Example 39], the negative-log IC50 (pIC50) in test [1] (setting [4]) is 4.59; in test [2] (setting [4]), under 4.00. Moreover, the activity at 100 µM is 22% in test [1] (setting [5]) and 52% in test [2] (setting [5]). In test [3], the inhibition at 50 µM came to 62%.
On to `S=c1[nH]cco1` [Example 40], for which the values for the pIC50 in test [1] (setting [4]) and in test [2] (setting [4]) were 5.40 and 5.52, respectively. Further, the activity at 100 µM in test [1] (setting [5]) and in test [2] (setting [5]) was 0% each time.
`CSC1=NCCO1` [Example 41]: in test [1], the negative-log IC50 (pIC50) is under 4.00 and the activity at 100 µM is 88%. Besides, in test [2], the pIC50 is under 4.00 and the activity at 100 µM stood at 68%.
As for `S=C1NC(c2ccccc2)CO1` (stereo not drawn) [Example 42], the pIC50 in test [1] (setting [4]) is 4.17; in test [2] (setting [4]), over 4.24. The activity at 100 µM in test [1] (setting [5]) came out at 40%; in test [2] (setting [5]), 12%.
For `CC1(C)COC(=S)N1` [Example 43] the same measures were 5.15, 4.70, 0% and 0%.
The matching figures for `C=CC1CNC(=S)O1` (stereo not drawn) [Example 44]: 5.70, 4.62, 0% and 0%.

Source of the values: patent US20230416168A1 (EUROCHEM ANTWERPEN, priority 2020, published 2023).
